Data taken from patent publication US20180099931A1 (AbbVie S.à.r.l., priority 2016, published 2018).
Where two headings read alike, the source gives them in different places.

Target: T1, F508delCFTR (Homo sapiens, UniProt P13569, DEL508-508)
T1 construct: expressed in transfected cells; host or cells: CFBE41o- human lung-derived epithelial cells (CFBE4lo-F508delCFTR-HRP), doxycycline-inducible
Assay: Cell Surface Expression-Horse Radish Peroxidase (CSE-HRP) Assay;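 as to Maximum % activity (with co-corrector): co-corrector and positive control are both the same reference corrector at 2 µM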;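 as to Maximum % activity (without co-corrector): percent of the 2 µM on-plate positive control corrector response above DMSO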
Format: cell-based
Conditions: for Emax / Maximum % activity (with co-corrector): maximum at any tested concentration, normalized to on-plate positive control; for Emax: read-out: Maximum % activity (without co-corrector)

[1] = test compound without co-corrector
[2] = test compound without co-corrector, read-out: EC50 (without co-corrector)
[3] = with co-corrector (2 μM of 3-[(2R,4R)-4-({[1-(2,2-difluoro-1,3-benzodioxol-5-yl)cyclopropyl]carbonyl}amino)-7-methoxy-3,4-dihydro-2H-chromen-2-yl]benzoic acid)
[4] = with co-corrector (2 μM of 3-[(2R,4R)-4-({[1-(2,2-difluoro-1,3-benzodioxol-5-yl)cyclopropyl]carbonyl}amino)-7-methoxy-3,4-dihydro-2H-chromen-2-yl]benzoic acid), read-out: EC50 (with co-corrector)

T1 sequence (P13569 with tags, fused parts or gaps DEL508-508): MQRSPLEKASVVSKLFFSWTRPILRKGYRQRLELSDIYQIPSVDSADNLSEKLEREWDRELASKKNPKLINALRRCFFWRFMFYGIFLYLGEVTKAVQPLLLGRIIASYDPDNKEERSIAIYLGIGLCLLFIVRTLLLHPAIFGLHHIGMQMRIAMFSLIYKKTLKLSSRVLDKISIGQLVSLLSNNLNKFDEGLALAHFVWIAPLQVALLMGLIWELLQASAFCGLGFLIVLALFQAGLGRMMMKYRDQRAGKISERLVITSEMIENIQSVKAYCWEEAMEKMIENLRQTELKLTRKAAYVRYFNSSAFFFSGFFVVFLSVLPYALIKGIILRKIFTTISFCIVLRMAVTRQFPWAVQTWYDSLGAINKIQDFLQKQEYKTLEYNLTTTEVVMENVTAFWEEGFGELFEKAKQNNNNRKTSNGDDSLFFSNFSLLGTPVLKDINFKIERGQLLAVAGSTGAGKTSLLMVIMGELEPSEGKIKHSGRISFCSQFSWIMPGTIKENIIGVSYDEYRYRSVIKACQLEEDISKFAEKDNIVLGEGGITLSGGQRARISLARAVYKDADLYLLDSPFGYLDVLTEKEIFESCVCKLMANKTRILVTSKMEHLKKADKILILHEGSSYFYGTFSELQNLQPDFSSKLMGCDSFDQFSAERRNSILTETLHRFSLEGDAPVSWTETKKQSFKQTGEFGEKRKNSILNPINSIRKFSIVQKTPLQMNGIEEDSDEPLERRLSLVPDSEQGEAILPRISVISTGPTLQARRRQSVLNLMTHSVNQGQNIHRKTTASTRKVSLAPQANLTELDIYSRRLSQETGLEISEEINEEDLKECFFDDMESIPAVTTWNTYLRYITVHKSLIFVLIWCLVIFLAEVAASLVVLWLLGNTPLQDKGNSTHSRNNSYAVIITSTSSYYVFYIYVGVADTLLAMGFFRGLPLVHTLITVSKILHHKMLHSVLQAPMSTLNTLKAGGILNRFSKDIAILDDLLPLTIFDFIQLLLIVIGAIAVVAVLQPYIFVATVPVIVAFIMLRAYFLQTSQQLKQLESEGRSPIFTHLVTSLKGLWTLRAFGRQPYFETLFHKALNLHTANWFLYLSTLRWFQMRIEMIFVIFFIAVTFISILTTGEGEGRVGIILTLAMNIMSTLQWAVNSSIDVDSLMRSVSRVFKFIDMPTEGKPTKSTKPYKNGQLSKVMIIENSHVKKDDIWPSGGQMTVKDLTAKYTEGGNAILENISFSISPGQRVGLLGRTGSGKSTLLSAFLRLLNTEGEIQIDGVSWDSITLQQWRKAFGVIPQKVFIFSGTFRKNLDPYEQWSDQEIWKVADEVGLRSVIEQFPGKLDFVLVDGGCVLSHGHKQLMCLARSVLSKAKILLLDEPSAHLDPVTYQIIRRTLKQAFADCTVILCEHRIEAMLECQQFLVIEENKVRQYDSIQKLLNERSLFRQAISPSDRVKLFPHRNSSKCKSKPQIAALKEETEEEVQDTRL

## COc1ccc(C(C)(C)C)cc1CN[C@H]1[C@H](C(C)(C)C)[C@@H](C(=O)O)N(C(=O)[C@@H]2CCC[C@@](C)(O)C2)[C@H]1c1ccccc1 [II-533]
[1]
  Emax: > 200%
[2]
  EC50: 1000 to 10000 nM
[3]
  Maximum % activity (with co-corrector): +++ (≥350)
[4]
  EC50: 1000 to 10000 nM

## COc1ccc(S(F)(F)(F)(F)F)cc1CN[C@H]1[C@H](C(C)(C)C)[C@@H](C(=O)O)N(C(=O)OC(C)C)[C@H]1c1ccccc1 [II-535]
[1]
  Emax: > 200%
[2]
  EC50: 1000 to 10000 nM
[3]
  Maximum % activity (with co-corrector): +++ (≥350)
[4]
  EC50: 1000 to 10000 nM

## COc1ccc(C2(C)CCC2)cc1CN[C@H]1[C@H](C(C)(C)C)[C@@H](C(=O)O)N(C(=O)OC(C)C)[C@H]1c1ccccc1 [II-537]
[1]
  Emax: > 200%
[2]
  EC50: 1000 to 10000 nM
[3]
  Maximum % activity (with co-corrector): +++ (≥350)
[4]
  EC50: 1000 to 10000 nM

## COc1cc(C(F)(F)F)ccc1CN[C@H]1[C@H](C(C)(C)C)[C@@H](C(=O)O)N(C(=O)[C@@H]2CCC[C@H](O)C2)[C@H]1c1ccccc1 [II-538]
[1]
  Emax: 100 to 200%
[2]
  EC50: 1000 to 10000 nM
[3]
  Maximum % activity (with co-corrector): +++ (≥350)
[4]
  EC50: 1000 to 10000 nM

## COc1ccc(C(C)(C)C)cc1CN[C@H]1[C@H](C(C)(C)C)[C@@H](C(=O)O)N(C(=O)[C@@H](C)c2ccccc2)[C@H]1c1cccnc1OC [II-539]
[1]
  Emax: < 100%
[2]
  EC50: 1000 to 10000 nM
[3]
  Maximum % activity (with co-corrector): ++ (≥150 and <350)
[4]
  EC50: 1000 to 10000 nM

## COc1ccc(C(C)(C)C)cc1CN[C@H]1[C@H](C(C)(C)C)[C@@H](C(=O)O)N(C(=O)[C@@H]2CCC[C@@H](OC(F)(F)F)C2)[C@H]1c1cccnc1OC [II-540]
[1]
  Emax: > 200%
[2]
  EC50: 1000 to 10000 nM
[3]
  Maximum % activity (with co-corrector): +++ (≥350)
[4]
  EC50: < 1000 nM

## COc1ccc(C(F)(F)F)cc1CN[C@H]1[C@H](C(C)(C)C)[C@@H](C(=O)O)N(C(=O)[C@H](C)c2ccccc2)[C@H]1c1cccnc1OC [II-541]
[1]
  Emax: 100 to 200%
[2]
  EC50: 1000 to 10000 nM
[3]
  Maximum % activity (with co-corrector): +++ (≥350)
[4]
  EC50: 1000 to 10000 nM

## COc1ccc(OC(F)(F)F)cc1CN[C@H]1[C@H](C(C)(C)C)[C@@H](C(=O)O)N(C(=O)[C@H](C)c2ccccc2)[C@H]1c1cccnc1OC [II-542]
[1]
  Emax: 100 to 200%
[2]
  EC50: 1000 to 10000 nM
[3]
  Maximum % activity (with co-corrector): +++ (≥350)
[4]
  EC50: 1000 to 10000 nM

## COc1ccc(C(C)(C)C)cc1CN[C@H]1[C@H](C(C)(C)C)[C@@H](C(=O)O)N(C(=O)[C@H]2C[C@@H]3CC[C@H]2O3)[C@H]1c1ccccc1 [II-543]
[1]
  Emax: > 200%
[2]
  EC50: 1000 to 10000 nM
[3]
  Maximum % activity (with co-corrector): +++ (≥350)
[4]
  EC50: 1000 to 10000 nM

## COc1ncc(C(F)(F)F)cc1CN[C@H]1[C@H](C23CC(C2)C3)[C@@H](C(=O)O)N(C(=O)OC(C)C)[C@H]1c1ccccc1F [II-544]
[1]
  Emax: 100 to 200%
[2]
  EC50: 1000 to 10000 nM
[3]
  Maximum % activity (with co-corrector): +++ (≥350)
[4]
  EC50: 1000 to 10000 nM

## COc1ncc(C(F)(F)F)cc1CN[C@H]1[C@H](C(C)(C)C)[C@@H](C(=O)O)N(C(=O)C2CCCCC2)[C@H]1c1ccccc1C(C)C [II-545]
[1]
  Emax: > 200%
[2]
  EC50: 1000 to 10000 nM
[3]
  Maximum % activity (with co-corrector): +++ (≥350)
[4]
  EC50: 1000 to 10000 nM

## COc1ccc(C2(C)CCC2)cc1CN[C@H]1[C@H](C(C)(C)C)[C@@H](C(=O)O)N(C(=O)[C@@H]2CCCCO2)[C@H]1c1ccccc1F [II-546]
[1]
  Emax: > 200%
[2]
  EC50: 1000 to 10000 nM
[3]
  Maximum % activity (with co-corrector): +++ (≥350)
[4]
  EC50: 1000 to 10000 nM

## COc1ccc(-c2ccccc2)cc1CN[C@H]1[C@H](C(C)(C)C)[C@@H](C(=O)O)N(C(=O)OC(C)C)[C@H]1c1cccnc1N(C)C [II-547]
[1]
  Emax: > 200%
[2]
  EC50: 1000 to 10000 nM
[3]
  Maximum % activity (with co-corrector): +++ (≥350)
[4]
  EC50: 1000 to 10000 nM

## COc1nc(C2CCC2)ccc1CN[C@H]1[C@H](C(C)(C)C)[C@@H](C(=O)O)N(C(=O)OC(C)C)[C@H]1c1cccnc1N(C)C [II-548]
[1]
  Emax: 100 to 200%
[2]
  EC50: 1000 to 10000 nM
[3]
  Maximum % activity (with co-corrector): +++ (≥350)
[4]
  EC50: 1000 to 10000 nM

## COc1cc2ccccc2cc1CN[C@H]1[C@H](C(C)(C)C)[C@@H](C(=O)O)N(C(=O)OC(C)C)[C@H]1c1ccccc1 [II-550]
[1]
  Emax: > 200%
[2]
  EC50: 1000 to 10000 nM
[3]
  Maximum % activity (with co-corrector): +++ (≥350)
[4]
  EC50: 1000 to 10000 nM

## COc1ccc(C(F)(F)F)cc1CN[C@H]1[C@H](C(C)(C)C)[C@@H](C(=O)O)N(C(=O)OC(C)C)[C@H]1c1cccnc1N(C)C [II-551]
[1]
  Emax: > 200%
[2]
  EC50: 1000 to 10000 nM
[3]
  Maximum % activity (with co-corrector): +++ (≥350)
[4]
  EC50: 1000 to 10000 nM

## COc1ccc(OC(F)(F)F)cc1CN[C@H]1[C@H](C(C)(C)C)[C@@H](C(=O)O)N(C(=O)OC(C)C)[C@H]1c1cccnc1N(C)C [II-552]
[1]
  Emax: > 200%
[2]
  EC50: 1000 to 10000 nM
[3]
  Maximum % activity (with co-corrector): +++ (≥350)
[4]
  EC50: 1000 to 10000 nM

## COc1ccc(C(F)(F)F)cc1CN[C@H]1[C@H](C(C)(C)C)[C@@H](C(=O)O)N(C(=O)OC(C)C)[C@H]1c1ccccc1 [II-553]
[1]
  Emax: > 200%
[2]
  EC50: 1000 to 10000 nM
[3]
  Maximum % activity (with co-corrector): +++ (≥350)
[4]
  EC50: 1000 to 10000 nM

## COc1cc2ccccc2cc1CN[C@@H]1[C@H](C(C)(C)C)[C@@H](C(=O)O)N(C(=O)OC(C)C)[C@H]1c1ccccc1 [II-554]
[1]
  Emax: 100 to 200%
[2]
  EC50: 1000 to 10000 nM
[3]
  Maximum % activity (with co-corrector): +++ (≥350)
[4]
  EC50: 1000 to 10000 nM

## COc1cc2c(cc1CN[C@@H]1[C@H](C(C)(C)C)[C@@H](C(=O)O)N(C(=O)OC(C)C)[C@H]1c1ccccc1)CCC2 [II-555]
[1]
  Emax: < 100%
[2]
  EC50: 1000 to 10000 nM
[3]
  Maximum % activity (with co-corrector): ++ (≥150 and <350)
[4]
  EC50: 1000 to 10000 nM

## COc1ccc(C(F)(F)F)cc1CN[C@@H]1[C@H](C(C)(C)C)[C@@H](C(=O)O)N(C(=O)OC(C)C)[C@H]1c1ccccc1 [II-556]
[1]
  Emax: < 100%
[2]
  EC50: 1000 to 10000 nM
[3]
  Maximum % activity (with co-corrector): ++ (≥150 and <350)
[4]
  EC50: 1000 to 10000 nM

## COc1nc(C(C)(C)C)ccc1CN[C@H]1[C@H](C(C)(C)C)[C@@H](C(=O)O)N(C(=O)OC(C)C)[C@H]1c1cccnc1OC(C)C [II-557]
[1]
  Emax: 100 to 200%
[2]
  EC50: 1000 to 10000 nM
[3]
  Maximum % activity (with co-corrector): +++ (≥350)
[4]
  EC50: < 1000 nM

## COc1cc(C(F)(F)F)ccc1CN[C@H]1[C@H](C(C)(C)C)[C@@H](C(=O)O)N(C(=O)CC(C)C)[C@H]1c1ccccc1 [II-558]
[1]
  Emax: 100 to 200%
[2]
  EC50: 1000 to 10000 nM
[3]
  Maximum % activity (with co-corrector): +++ (≥350)
[4]
  EC50: 1000 to 10000 nM

## COc1ccc(C2(C(F)(F)F)CC2)cc1CN[C@H]1[C@H](C(C)(C)C)[C@@H](C(=O)O)N(C(=O)OC(C)C)[C@H]1c1cccnc1N(C)C [II-559]
[1]
  Emax: > 200%
[2]
  EC50: 1000 to 10000 nM
[3]
  Maximum % activity (with co-corrector): +++ (≥350)
[4]
  EC50: 1000 to 10000 nM

## COc1ccc(OC(F)(F)F)cc1CN[C@H]1[C@H](C(C)(C)C)[C@@H](C(=O)O)N(C(=O)OC(C)C)[C@H]1c1ccccc1C(C)C [II-560]
[1]
  Emax: > 200%
[2]
  EC50: 1000 to 10000 nM
[3]
  Maximum % activity (with co-corrector): +++ (≥350)
[4]
  EC50: < 1000 nM

## COc1cc(C(F)(F)F)ccc1CN[C@H]1[C@H](C(C)(C)C)[C@@H](C(=O)O)N(C(=O)OC(C)C)[C@H]1c1ccccc1C(C)C [II-561]
[1]
  Emax: > 200%
[2]
  EC50: 1000 to 10000 nM
[3]
  Maximum % activity (with co-corrector): +++ (≥350)
[4]
  EC50: < 1000 nM

## COc1cc2ccccc2cc1CN[C@H]1[C@H](C(C)(C)C)[C@@H](C(=O)O)N(C(=O)OC(C)C)[C@H]1c1cccnc1N(C)C [II-562]
[1]
  Emax: 100 to 200%
[2]
  EC50: 1000 to 10000 nM
[3]
  Maximum % activity (with co-corrector): +++ (≥350)
[4]
  EC50: 1000 to 10000 nM

## COc1cc2c(cc1CN[C@H]1[C@H](C(C)(C)C)[C@@H](C(=O)O)N(C(=O)OC(C)C)[C@H]1c1cccnc1N(C)C)CCC2 [II-563]
[1]
  Emax: 100 to 200%
[2]
  EC50: 1000 to 10000 nM
[3]
  Maximum % activity (with co-corrector): +++ (≥350)
[4]
  EC50: 1000 to 10000 nM

## COc1ccc(C(C)(C)C)cc1CN[C@H]1[C@H](C(C)(C)C)[C@@H](C(=O)O)N(C(=O)CC(C)C)[C@H]1c1ccccc1 [II-564]
[1]
  Emax: > 200%
[2]
  EC50: 1000 to 10000 nM
[3]
  Maximum % activity (with co-corrector): +++ (≥350)
[4]
  EC50: 1000 to 10000 nM
